Assay results taken from patent publication US6737383B1, “Herbicidal oxadiazolidines” (priority 1999, dated 2004).

Key:
[1] = tested on: velvetleaf; assay: Test B pre/postemergence velvetleaf; assay type: in vivo, Abutilon theophrasti; details: for Plant response rating, Velvetleaf: scale of 0 to 10 where 0 is no effect and 10 is complete control
Summary of the method: (§1)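 Herbicidal effect was estimated by eye on a ten-point control scale after plants spent twelve to sixteen days in a greenhouse following soil or foliar treatment. Foliar sprays targeted plants at one to four leaves; all doses were formulated in a non-phytotoxic solvent with surfactant.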

[2] = tested on: soybean; assay: Test B pre/postemergence soybean; assay type: in vivo, Glycine max; details: for Plant response rating, Soybean: scale of 0 to 10 where 0 is no effect and 10 is complete control
Summary of the method: as §1

[3] = tested on: wheat; assay: Test B pre/postemergence wheat; assay type: in vivo, Triticum aestivum; details: for Plant response rating, Wheat: scale of 0 to 10 where 0 is no effect and 10 is complete control
Summary of the method: as §1

[4] = tested on: crabgrass; assay: Test B pre/postemergence crabgrass; assay type: in vivo, Digitaria sanguinalis
Summary of the method: as §1

[5] = tested on: surinam grass; assay: Test B pre/postemergence surinam grass; assay type: in vivo, Brachiaria decumbens
Summary of the method: as §1

[6] = tested on: duck salad; assay: Test B flood test duck salad; assay type: in vivo, Heteranthera limosa
Summary of the method: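 Flood test on plants grown to the 2-leaf stage; treated plants kept in greenhouse twelve to sixteen days, then visually rated against controls on a 0 (no effect) to 10 (complete control) scale.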

[7] = tested on: bedstraw; assay: Test B pre/postemergence bedstraw; assay type: in vivo, Galium aparine
Summary of the method: as §1

[8] = tested on: giant foxtail; assay: Test B pre/postemergence giant foxtail; assay type: in vivo, Setaria faberii; details: for Plant response rating, Giant foxtail: scale of 0 to 10 where 0 is no effect and 10 is complete control
Summary of the method: as §1

[9] = tested on: sugar beet; assay: Test B pre/postemergence sugar beet; assay type: in vivo, Beta vulgaris; details: for Plant response rating, Sugarbeets: scale of 0 to 10 where 0 is no effect and 10 is complete control
Summary of the method: as §1

[10] = tested on: rape; assay: Test B pre/postemergence rape; assay type: in vivo, Brassica napus; details: for Plant response rating, Rape: scale of 0 to 10 where 0 is no effect and 10 is complete control
Summary of the method: as §1

[11] = tested on: morningglory; assay: Test B pre/postemergence morningglory; assay type: in vivo, Ipomoea hederacea; details: for Plant response rating, Morningglory: scale of 0 to 10 where 0 is no effect and 10 is complete control
Summary of the method: as §1

[12] = tested on: purple nutsedge; assay: Test B pre/postemergence purple nutsedge; assay type: in vivo, Cyperus rotundus; details: for Plant response rating, Nutsedge: scale of 0 to 10 where 0 is no effect and 10 is complete control
Summary of the method: as §1

[13] = tested on: corn; assay: Test B pre/postemergence corn; assay type: in vivo, Zea mays
Summary of the method: as §1

[14] = tested on: pigweed; assay: Test B pre/postemergence pigweed; assay type: in vivo, Amaranthus retroflexus; details: for Plant response rating, Redroot pigweed: scale of 0 to 10 where 0 is no effect and 10 is complete control
Summary of the method: as §1

[15] = tested on: cocklebur; assay: Test B pre/postemergence cocklebur; assay type: in vivo, Xanthium strumarium
Summary of the method: as §1

[16] = Postemergence, Rate 250 g/ha, scale 0 to 10
[17] = Preemergence, Rate 250 g/ha, scale 0 to 10, 0 is no effect, 10 is complete control
[18] = Preemergence, Rate 500 g/ha, scale 0 to 10, 0 is no effect, 10 is complete control
[19] = Rate 62 g/ha, Postemergence, scale 0 to 10 (0 no effect, 10 complete control)
[20] = Rate 125 g/ha, Postemergence, scale 0 to 10, 0 is no effect, 10 is complete control
[21] = Postemergence, Rate 500 g/ha, scale of 0 to 10 where 0 is no effect and 10 is complete control
[22] = Preemergence, Rate 125 g/ha, scale of 0 to 10 where 0 is no effect and 10 is complete control
[23] = Preemergence, Rate 62 g/ha, scale of 0 to 10 where 0 is no effect and 10 is complete control

CC(C)N(C(=O)n1oc(=O)n(C(C)C(=O)N(C)C)c1=O)c1ccccc1 (centres unmarked) [Compound 479]
Velvetleaf plant response rating [1, 16]: 0
Plant response rating, Velvetleaf ([1]; Preemergence, Rate 62 g/ha): 0
Plant response rating, Velvetleaf ([1]; Preemergence, Rate 125 g/ha): 0
Velvetleaf plant response rating [1, 17]: 1
Velvetleaf plant response rating [1, 18]: 5
Velvetleaf plant response rating [1, 19]: 0
Velvetleaf plant response rating [1, 20]: 0
Soybean plant response rating [2, 16]: 3
Plant response rating, Soybean ([2]; Preemergence, Rate 62 g/ha): 0
Plant response rating, Soybean ([2]; Preemergence, Rate 125 g/ha): 0
Soybean plant response rating [2, 17]: 0
Soybean plant response rating [2, 18]: 0
Soybean plant response rating [2, 19]: 1
Soybean plant response rating [2, 20]: 1
Wheat plant response rating [3, 16]: 0
Plant response rating, Wheat ([3]; Preemergence, Rate 62 g/ha): 0
Plant response rating, Wheat ([3]; Preemergence, Rate 125 g/ha): 0
Wheat plant response rating [3, 17]: 3
Wheat plant response rating [3, 18]: 7
Wheat plant response rating [3, 19]: 0
Wheat plant response rating [3, 20]: 0
Crabgrass plant response rating [4, 16]: 6
Crabgrass plant response rating [4, 21]: 9
Plant response rating, Crabgrass [4, 22]: 8
Crabgrass plant response rating [4, 17]: 9
Crabgrass plant response rating [4, 18]: 10
Crabgrass plant response rating [4, 19]: 2
Crabgrass plant response rating [4, 20]: 3
B. signalgrass plant response rating ([5]; Postemergence, Rate 250 g/ha, scale 0 to 10, 0 no effect, 10 complete control): 3
B. signalgrass plant response rating [5, 21]: 7
Plant response rating, B. signalgrass [5, 23]: 0
Plant response rating, B. signalgrass [5, 22]: 5
B. signalgrass plant response rating [5, 17]: 6
B. signalgrass plant response rating [5, 18]: 9
B. signalgrass plant response rating [5, 19]: 0
B. signalgrass plant response rating [5, 20]: 2
Plant response rating, Ducksalad (0 to 10 scale, 0 is no effect, 10 is complete control) ([6]; Rate 62 g/ha, flood test species, Pre-emergence, visual evaluation after twelve to sixteen days): 0
Ducksalad plant response rating (0 to 10 scale, 0 is no effect, 10 is complete control) ([6]; Rate 125 g/ha, under heading Pre-emergence, flood test species, visual evaluation after twelve to sixteen days): 0
Ducksalad plant response rating ([6]; Rate 250 g/ha, Pre-emergence (flood test species), scale 0 to 10, 0 is no effect, 10 is complete control): 0
Ducksalad plant response rating ([6]; Rate 500 g/ha, Pre-emergence, flood test species, scale 0 to 10 (0 no effect, 10 complete control)): 0
Bedstraw plant response rating [7, 16]: 0
Bedstraw plant response rating [7, 17]: 0
Bedstraw plant response rating [7, 18]: 0
Bedstraw plant response rating [7, 19]: 0
Bedstraw plant response rating [7, 20]: 0
Giant foxtail plant response rating [8, 16]: 6
Plant response rating, Giant foxtail ([8]; Preemergence, Rate 62 g/ha): 7
Plant response rating, Giant foxtail ([8]; Preemergence, Rate 125 g/ha): 9
Giant foxtail plant response rating [8, 17]: 10
Giant foxtail plant response rating [8, 18]: 10
Giant foxtail plant response rating [8, 19]: 0
Giant foxtail plant response rating [8, 20]: 3
Sugarbeets plant response rating [9, 16]: 0
Plant response rating, Sugarbeets ([9]; Preemergence, Rate 62 g/ha): 0
Plant response rating, Sugarbeets ([9]; Preemergence, Rate 125 g/ha): 0
Sugarbeets plant response rating [9, 17]: 2
Sugarbeets plant response rating [9, 18]: 4
Sugarbeets plant response rating [9, 19]: 0
Sugarbeets plant response rating [9, 20]: 0
Rape plant response rating [10, 16]: 0
Plant response rating, Rape ([10]; Preemergence, Rate 62 g/ha): 0
Plant response rating, Rape ([10]; Preemergence, Rate 125 g/ha): 0
Rape plant response rating [10, 17]: 1
Rape plant response rating [10, 18]: 4
Rape plant response rating [10, 19]: 0
Rape plant response rating [10, 20]: 0
Morningglory plant response rating [11, 16]: 10
Plant response rating, Morningglory ([11]; Preemergence, Rate 62 g/ha): 0
Plant response rating, Morningglory ([11]; Preemergence, Rate 125 g/ha): 0
Morningglory plant response rating [11, 17]: 4
Morningglory plant response rating [11, 18]: 4
Morningglory plant response rating [11, 19]: 7
Morningglory plant response rating [11, 20]: 10
Nutsedge plant response rating [12, 16]: 0
Plant response rating, Nutsedge ([12]; Preemergence, Rate 62 g/ha): 0
Plant response rating, Nutsedge ([12]; Preemergence, Rate 125 g/ha): 0
Nutsedge plant response rating [12, 17]: 0
Nutsedge plant response rating [12, 19]: 0
Nutsedge plant response rating [12, 20]: 0
Corn plant response rating [13, 16]: 0
Corn plant response rating [13, 21]: 4
Plant response rating, Corn [13, 23]: 0
Plant response rating, Corn [13, 22]: 0
Corn plant response rating [13, 17]: 0
Corn plant response rating [13, 18]: 3
Corn plant response rating [13, 19]: 0
Corn plant response rating [13, 20]: 0
Redroot pigweed plant response rating [14, 16]: 2
Plant response rating, Redroot pigweed ([14]; Preemergence, Rate 62 g/ha): 0
Plant response rating, Redroot pigweed ([14]; Preemergence, Rate 125 g/ha): 3
Redroot pigweed plant response rating [14, 17]: 6
Redroot pigweed plant response rating [14, 18]: 6
Redroot pigweed plant response rating [14, 19]: 0
Redroot pigweed plant response rating [14, 20]: 2
Cocklebur plant response rating [15, 16]: 0
Cocklebur plant response rating [15, 21]: 0
Plant response rating, Cocklebur [15, 23]: 0
Plant response rating, Cocklebur [15, 22]: 0
Cocklebur plant response rating [15, 17]: 0
Cocklebur plant response rating [15, 19]: 0
Cocklebur plant response rating [15, 20]: 0
